Legend:
[1] = system: ROR1 pathways in JeKo‐1 cells; assay: Western blotting of ROR1 pathway; assay type: cell-based, human; conditions: western blot
From the text: This time‐dependent reduction in P‐ROR1 is particularly significant, as it represents the upstream event that drives the observed proapoptotic downstream effects. […] Indeed, activation of ROR1 initiates the nonclassical Wnt (PI3K/AKT/mTOR) pathway and upregulates the phosphorylation level of AKT, which contributes to the survival and proliferation of cancer cells.^[ [25] ^]
Figure 6 Molecular effects of 17 on ROR1 pathways in JeKo‐1 cells. For each western blotting analysis, three independent experiments were performed, and the SD is expressed by error bars. The relative fold change versus untreated cells, set as 1, is shown in the graph. *, **, and *** denote respectively p < 0.05, p < 0.01, and p < 0.001 versus Ctrl.
JeKo‐1 cells (2.5 × 10^6 cells/well) were seeded in a T‐75 flask, treated with compound 17 (10 μM) for different times (4, 8, and 24 h). After treatments, cells were washed twice with PBS and detached with a scraper, centrifuged at 655 g × 10 min at 4 °C. Full proteins were extracted by lysis buffer (20 mM Tris‐HCl pH 7.5, 150 mM NaCl, 1 mM Na2EDTA, 1 mM EGTA, 2% NP‐40, 1% sodium deoxycholate, 1× protease and phosphatase inhibitor cocktail) for 30 min. Then, cell lysates were centrifuged at 4850 g for 20 min at 4 °C. 60 μg of total proteins were run on 8% SDS‐PAGE and transferred to nitrocellulose membranes using a minigel apparatus (Bio‐Rad Laboratories, Hercules, CA, USA). Blots were blocked in phosphate‐buffered saline, containing Tween‐20 0.1% and 5% BSA for 1 h at room temperature and incubated overnight with specific primary antibodies at 4 °C with slight agitation. α‐Tubulin was used as the loading control. […] Antigen‐antibody complexes were detected by enhanced chemiluminescence (ECL kit, Amersham, Germany). […]

[2] = Plasma protein binding, rapid equilibrium dialysis; assay type: in vitro ADME; conditions: 37 °C, read-out: drug bound to plasma proteins
From the text: Plasma protein binding plays a crucial role in drug distribution and biological activity. After absorption into systemic circulation, drug molecules may bind to plasma proteins, and the bound drug cannot cross biological membranes, rendering it unavailable to exert a pharmacological effect. Only the free drug, unbound to plasma proteins, is pharmacologically active.
A Rapid Equilibrium Dialysis Plate (Pierce™ RED, Thermo Scientific) was used to determine the percentage of compound binding to plasma proteins. Potassium phosphate buffer was added to each white well, and plasma/compound (1 μM) mixture was added to the red wells. The plate was sealed and incubated at 37 °C on an orbital shaker at 300 rpm for 4 h. Afterward, 50 μL of post‐dialysis samples from the buffer and plasma chambers were transferred into separate microcentrifuge tubes. An equal volume of plasma was added to the buffer sample, while the plasma sample received an equivalent volume of buffer. Precooled IS was added to the assay plate to quench the reaction. Compounds were quantified by LC‐MS/MS. The percentage of free and bound compound was calculated using the following equations: % free = (concentration in buffer chamber/concentration in plasma chamber) × 100, and % bound = 100 − % free.^[ [48] ^] All experiments were performed in duplicate. Propranolol was used as positive control.

[3] = system: SH‐SY5Y cells; assay: MTT cell viability assay, SH‐SY5Y; assay type: cell-based; conditions: Homo sapiens, cytotoxicity, treated for 72 h, read-out: EC50 ± SD SH‐SY5Y
Method: Cytotoxicity studies, assessing the activity of the synthetized compounds, were performed only on the molecules showing the best binding profile in the SPR assay. MTT test was performed on two cell lines known for overexpressing ROR1, particularly MTT assays were conducted on JeKo‐1 (human mantle cell lymphoma) and SH‐SY5Y (neuroblastoma), exposing them to different concentrations of compounds for 72 h (Table 2 ). […] This increased effectiveness is likely due to the high expression of the target protein in leukemia and other hematologic malignancies. […] A key structural difference in 18 and 19 compared to active compounds is the absence of the trifluoromethyl group on the aromatic ring. Indeed, the removal of the trifluoromethyl group (18) or the incorporation of an electron‐donating substituent (19) alters the interaction with the ATP‐binding pocket.
The neuroblastoma SH‐SY5Y cells, a human neuroblastoma cell line of neural crest origin, were obtained from ATCC and were grown in DMEM supplemented with 10% v/v fetal bovine serum, 2 mM L‐glutamine, 100 U mL^−1 penicillin, and 0.1 mg mL^−1 streptomycin.
Cell viability was established by measuring mitochondrial metabolic activity with MTT. In brief, SH‐SY5Y (20 × 10^3 cells/well) and JeKo‐1 (10 × 10^3 cells/well) were plated into 96‐well plates for 24 h, then the compounds (1.56–50 μM) were added. […], cells were replaced with a fresh medium containing 0.5 mg mL^−1 MTT.^[ [45] ^] Cells were incubated for 1–3 h at 37 °C, then the medium was discarded, and formazan blue crystals in the cells dissolved with 100 μL per well of a solution containing isopropanol/HCl 0.1 M. The absorbance was measured at 570 nm using a microplate reader (Multiskan Go, Thermo Scientific, Waltham, MA, USA). Cell viability was expressed as a percentage relative to the untreated cells cultured in medium with 0.1% DMSO and set to 100%, whereas 10% DMSO was used as positive control and set to 0% of viability. The EC50 values were calculated using GraphPad Prism 8.0 software by nonlinear regression of dose‐response inhibition.

O=C(NCc1ccc(-c2ccccc2)cc1)Nc1ccc(NCC2CCNCC2)cc1C(F)(F)F [Compound 17]
AKT phosphorylation ([1]; JeKo‐1, 10 μM, 4, 8 and 24 h): significant decrease
ROR1 phosphorylation ([1]; JeKo‐1, 10 μM, 4, 8 and 24 h): marked reduction
total ROR1 protein levels ([1]; JeKo‐1, 10 μM, 24 h): increase
fraction unbound at 4 h, 1 μM [2]: 0.01
EC50 [3]: 17.7 ± 2.73 µM

From PMC12276035, “Novel Para‐Phenylenediamine‐Based Derivatives as Receptor Tyrosine Kinase‐like Orphan Receptor 1 (ROR1) Inhibitors: An In Vitro Preliminary Characterization” (Chemmedchem, 2025)
